Reference: patent US7538182B2, “Polypeptide and protein derivatives and process for their preparation” (Amylin Pharmaceuticals, Inc., priority 1986, dated 2009)

How the values were obtained:
[1] = type: physicochemical
Description: Once the iron had been removed, the solution was adjusted to pH 5.5 with 1.7 M sodium acetate buffer. The resulting precipitate was carefully washed by centrifugation in 0.7 M sodium acetate buffer, until the residual EDTA concentration could be expected to be negligible compared to that of the conjugate.

[2] = Removal of iron with propionic acid/EDTA, followed by spectroscopy (loss of the 400-450 nm peak); type: physicochemical; conditions: test solution of 1 mM ferrioxamine B
Description: The pink colour of the solution was rapidly lost. If desired the reaction can be followed spectroscopically, since after removal of iron the peak between 400 nm and 450 nm, characteristic of the ferrioxamine B conjugate will disappear completely.

Row | Compound | storage stability (capacity to be labelled) [1] | rate of the removal of iron ([2]; pH 2.5) | half-time for the removal of iron ([2]; pH 3) | half-time for the removal of iron ([2]; pH 3.5)
1 | des-Ala^B30-insulin/desferrioxamine B conjugate [iron-free protein derivative] | without apparent impairment |  |  | 
2 | CC(=O)N([O-])CCCCCNC(=O)CCC(=O)N([O-])CCCCCNC(=O)CCC(=O)N([O-])CCCCCN.[Fe+3] [ferrioxamine B] |  | too rapid to follow | approximately 90 seconds | approximately 340 sec
